Test results taken from PubChem BioAssay (NCI).
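48-hour exposure; five concentrations; linearly interpolated endpoints. Abbreviation: GI50, concentration required for 50% inhibition of growth. The concentration for full growth arrest is given as TGI.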

Experiments:
Assay in all cases: NCI-60 cell line screen, 48 h
SNB-75 CNS = test system: SNB-75 CNS
SK-OV-3 ovarian = test system: SK-OV-3 ovarian
ACHN renal = test system: ACHN renal
HOP-92 NSCLC = test system: HOP-92 NSCLC
PC-3 prostate = test system: PC-3 prostate
HS 578T breast = test system: HS 578T breast
NCI-H226 lung = test system: NCI-H226 lung
KM12 colon = test system: KM12 colon
HL-60(TB) leukemia = test system: HL-60(TB) leukemia
SF-295 CNS = test system: SF-295 CNS
T-47D breast = test system: T-47D breast
OVCAR-3 ovarian = test system: OVCAR-3 ovarian
786-0 renal = test system: 786-0 renal
SF-539 CNS = test system: SF-539 CNS
M14 melanoma = test system: M14 melanoma
MALME-3M melanoma = test system: MALME-3M melanoma
SK-MEL-5 melanoma = test system: SK-MEL-5 melanoma
SK-MEL-2 melanoma = test system: SK-MEL-2 melanoma
NCI-H522 lung = test system: NCI-H522 lung
HOP-62 NSCLC = test system: HOP-62 NSCLC
TK-10 renal = test system: TK-10 renal
NCI-H460 lung = test system: NCI-H460 lung
UACC-62 melanoma = test system: UACC-62 melanoma
HT29 colon = test system: HT29 colon
K-562 leukemia = test system: K-562 leukemia
UACC-257 melanoma = test system: UACC-257 melanoma
RPMI-8226 leukemia = test system: RPMI-8226 leukemia
RXF 393 renal = test system: RXF 393 renal
NCI-H23 lung = test system: NCI-H23 lung
SN12C renal = test system: SN12C renal
MCF7 breast = test system: MCF7 breast
HCC-2998 colon = test system: HCC-2998 colon
CCRF-CEM leukemia = test system: CCRF-CEM leukemia
SF-268 CNS = test system: SF-268 CNS
UO-31 renal = test system: UO-31 renal
NCI/ADR-RES ovarian = test system: NCI/ADR-RES ovarian
MOLT-4 leukemia = test system: MOLT-4 leukemia
SR leukemia = test system: SR leukemia
SW-620 colon = test system: SW-620 colon
SNB-19 CNS = test system: SNB-19 CNS
HCT-116 colon = test system: HCT-116 colon
BT-549 breast = test system: BT-549 breast
MDA-MB-231 breast = test system: MDA-MB-231 breast
OVCAR-8 ovarian = test system: OVCAR-8 ovarian
IGROV1 ovarian = test system: IGROV1 ovarian
MDA-MB-435 = test system: MDA-MB-435
SK-MEL-28 melanoma = test system: SK-MEL-28 melanoma
LOX IMVI melanoma = test system: LOX IMVI melanoma
A549 NSCLC = test system: A549 NSCLC
COLO 205 colon = test system: COLO 205 colon
A498 renal = test system: A498 renal
OVCAR-4 ovarian = test system: OVCAR-4 ovarian
OVCAR-5 ovarian = test system: OVCAR-5 ovarian
EKVX NSCLC = test system: EKVX NSCLC
U251 CNS = test system: U251 CNS
HCT-15 colon = test system: HCT-15 colon

`CCC(C)[C@H]1OC(=O)[C@H](C(C)C)N(C)C(=O)[C@@H](C(C)C)OC(=O)[C@H](C(C)C)N(C)C(=O)[C@@H](C(C)CC)OC(=O)[C@H](C(C)C)N(C)C1=O` (some centres not stated) was tested, and the GI50 (SNB-75 CNS) was 507 nM, the TGI (SNB-75 CNS) was 2820 nM and the GI50 (SK-OV-3 ovarian) was 379 nM. For the same compound, the TGI (SK-OV-3 ovarian) was 1010 nM, the GI50 (ACHN renal) was 517 nM and the TGI (ACHN renal) was 2960 nM. For the same compound, the GI50 (HOP-92 NSCLC) was 379 nM, the TGI (HOP-92 NSCLC) was 1050 nM and the GI50 (PC-3 prostate) was 588 nM. It also gave a TGI (PC-3 prostate) of 9930 nM, a GI50 (HS 578T breast) of 745 nM and a TGI (HS 578T breast) of 6960 nM. The GI50 (NCI-H226 lung) was 647 nM, the TGI (NCI-H226 lung) was 2730 nM and the GI50 (KM12 colon) was 651 nM. The TGI (KM12 colon) was > 16700 nM, the GI50 (HL-60(TB) leukemia) was 383 nM and the TGI (HL-60(TB) leukemia) was 851 nM. The GI50 (SF-295 CNS) was 453 nM, the TGI (SF-295 CNS) was 1530 nM and the GI50 (T-47D breast) was 472 nM. The TGI (T-47D breast) was 1470 nM, the GI50 (OVCAR-3 ovarian) was 694 nM and the TGI (OVCAR-3 ovarian) was > 16700 nM. For the same compound, the GI50 (786-0 renal) was 575 nM, the TGI (786-0 renal) was 5390 nM and the GI50 (SF-539 CNS) was 638 nM. The TGI (SF-539 CNS) was 2710 nM, the GI50 (M14 melanoma) was 601 nM and the TGI (M14 melanoma) was 2550 nM. It also gave a GI50 (MALME-3M melanoma) of 458 nM, a TGI (MALME-3M melanoma) of 1810 nM and a GI50 (SK-MEL-5 melanoma) of 357 nM. For the same compound, the TGI (SK-MEL-5 melanoma) was 783 nM, the GI50 (SK-MEL-2 melanoma) was 533 nM and the TGI (SK-MEL-2 melanoma) was 2190 nM. For the same compound, the GI50 (NCI-H522 lung) was 429 nM, the TGI (NCI-H522 lung) was 1650 nM and the GI50 (HOP-62 NSCLC) was 491 nM. It also gave a TGI (HOP-62 NSCLC) of 2420 nM, a GI50 (TK-10 renal) of 543 nM and a TGI (TK-10 renal) of 3970 nM. The GI50 (NCI-H460 lung) was 570 nM, the TGI (NCI-H460 lung) was 3350 nM and the GI50 (UACC-62 melanoma) was 710 nM. For the same compound, the TGI (UACC-62 melanoma) was 2980 nM, the GI50 (HT29 colon) was 567 nM and the TGI (HT29 colon) was 2160 nM. For the same compound, the GI50 (K-562 leukemia) was 687 nM, the TGI (K-562 leukemia) was > 16700 nM and the GI50 (UACC-257 melanoma) was 427 nM. It also gave a TGI (UACC-257 melanoma) of 1560 nM, a GI50 (RPMI-8226 leukemia) of 413 nM and a TGI (RPMI-8226 leukemia) of 1020 nM. For the same compound, the GI50 (RXF 393 renal) was 420 nM, the TGI (RXF 393 renal) was 2570 nM and the GI50 (NCI-H23 lung) was 548 nM. The TGI (NCI-H23 lung) was > 16700 nM, the GI50 (SN12C renal) was 544 nM and the TGI (SN12C renal) was 2160 nM. The GI50 (MCF7 breast) was 529 nM, the TGI (MCF7 breast) was > 16700 nM and the GI50 (HCC-2998 colon) was 846 nM. The TGI (HCC-2998 colon) was 8060 nM, the GI50 (CCRF-CEM leukemia) was 600 nM and the TGI (CCRF-CEM leukemia) was 3040 nM. It also gave a GI50 (SF-268 CNS) of 726 nM, a TGI (SF-268 CNS) of 4260 nM and a GI50 (UO-31 renal) of 422 nM. It also gave a TGI (UO-31 renal) of 1710 nM, a GI50 (NCI/ADR-RES ovarian) of 510 nM and a TGI (NCI/ADR-RES ovarian) of 5900 nM. The GI50 (MOLT-4 leukemia) was 793 nM, the TGI (MOLT-4 leukemia) was 2850 nM and the GI50 (SR leukemia) was 685 nM. For the same compound, the TGI (SR leukemia) was 3620 nM, the GI50 (SW-620 colon) was 616 nM and the TGI (SW-620 colon) was > 16700 nM. For the same compound, the GI50 (SNB-19 CNS) was 616 nM, the TGI (SNB-19 CNS) was 3890 nM and the GI50 (HCT-116 colon) was 532 nM. The TGI (HCT-116 colon) was > 16700 nM, the GI50 (BT-549 breast) was 501 nM and the TGI (BT-549 breast) was 1750 nM. The GI50 (MDA-MB-231 breast) was 520 nM, the TGI (MDA-MB-231 breast) was 1630 nM and the GI50 (OVCAR-8 ovarian) was 610 nM. The TGI (OVCAR-8 ovarian) was > 16700 nM, the GI50 (IGROV1 ovarian) was 886 nM and the TGI (IGROV1 ovarian) was > 16700 nM. For the same compound, the GI50 (MDA-MB-435) was 619 nM, the TGI (MDA-MB-435) was 7650 nM and the GI50 (SK-MEL-28 melanoma) was 952 nM. For the same compound, the TGI (SK-MEL-28 melanoma) was 4450 nM, the GI50 (LOX IMVI melanoma) was 562 nM and the TGI (LOX IMVI melanoma) was 2140 nM. The GI50 (A549 NSCLC) was 514 nM, the TGI (A549 NSCLC) was > 16700 nM and the GI50 (COLO 205 colon) was 341 nM. For the same compound, the TGI (COLO 205 colon) was 743 nM, the GI50 (A498 renal) was 390 nM and the TGI (A498 renal) was 1170 nM. For the same compound, the GI50 (OVCAR-4 ovarian) was 632 nM, the TGI (OVCAR-4 ovarian) was > 16700 nM and the GI50 (OVCAR-5 ovarian) was 537 nM. For the same compound, the TGI (OVCAR-5 ovarian) was 6120 nM, the GI50 (EKVX NSCLC) was 554 nM and the TGI (EKVX NSCLC) was > 16700 nM. For the same compound, the GI50 (U251 CNS) was 560 nM, the TGI (U251 CNS) was 2330 nM and the GI50 (HCT-15 colon) was 536 nM. For the same compound, the TGI (HCT-15 colon) was 3520 nM.
